Experimental data taken from publication PMC7340446, “Optimization of PTH/PTHrP Hybrid Peptides to Derive a Long‐Acting PTH Analog (LA‐PTH)” (JBMR Plus, 2020).
Where no end group is shown, it is not given here.

Legend:
[1] = target: T1, human PTHR1 (RG conformation) (Homo sapiens, UniProt Q03431); assay: Competition binding to the RG conformation of PTHR1
T1 construct: expressed in transfected cells; host or cells: COS-7 cells (transient co-transfection; membranes)
T1 sequence (Q03431 27-593): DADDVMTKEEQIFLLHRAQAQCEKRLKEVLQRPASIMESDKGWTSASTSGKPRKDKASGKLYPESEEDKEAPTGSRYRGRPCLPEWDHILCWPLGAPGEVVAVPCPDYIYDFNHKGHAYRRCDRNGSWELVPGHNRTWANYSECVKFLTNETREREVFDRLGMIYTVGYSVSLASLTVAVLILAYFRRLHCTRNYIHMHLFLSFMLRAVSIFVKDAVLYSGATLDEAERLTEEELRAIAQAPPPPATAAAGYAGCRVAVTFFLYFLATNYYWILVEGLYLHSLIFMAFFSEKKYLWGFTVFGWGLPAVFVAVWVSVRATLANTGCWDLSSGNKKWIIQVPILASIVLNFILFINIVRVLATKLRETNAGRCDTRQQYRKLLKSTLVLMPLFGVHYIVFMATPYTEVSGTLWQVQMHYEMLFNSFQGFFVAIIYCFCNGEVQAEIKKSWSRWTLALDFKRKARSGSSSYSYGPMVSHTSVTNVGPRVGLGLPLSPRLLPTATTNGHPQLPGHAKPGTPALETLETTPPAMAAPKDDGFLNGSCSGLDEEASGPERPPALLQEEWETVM

[2] = system: thyroparathyroidectomized (TPTX) rats; assay: Repeated daily administration in TPTX rats (11‐day treatment, 12‐day study); format: in vivo, rat; settings: daily s.c. 8.0 nmol/kg
Protocol: TPTX rats were injected i.v. or s.c. with vehicle or vehicle containing a PTH peptide, or orally treated once daily with vehicle (medium‐chain triglyceride; Chugai Pharma Manufacturing, Tokyo, Japan) or vehicle containing alfacalcidol (Chugai Pharma Manufacturing) for 11 days. Blood samples were obtained from the tail or jugular vein immediately before and at times after injection. Urine samples at 0 to 8 hours or 8 to 24 hours, were collected in metabolic cages. sCa and uCa, serum inorganic phosphorus (sPi) and urinary phosphorus (uPi), and creatinine (uCre) were measured with an automatic analyzer (7180; Hitachi, Ltd, Chiyoda, Tokyo, Japan). Urinary deoxypyridinoline (uDpD) was measured using a Metra DPD EIA kit (DS Pharma Biomedical, Osaka, Japan), and the data were normalized to the uCre concentrations. Serum FGF23 was measured using FGF23 ELISA assay (Immunodiagnostik AG, Bensheim, Germany). Serum 1,25‐dihydroxyvitamin D [1,25(OH)2D3] levels were determined by a ELISA immunoassay (Immunodiagnostic System Ltd, Bolden, UK).
Figure 4 Effects of 11‐day treatment (12‐day study) with M‐PTH/PTHrP or alfacalcidol on serum calcium (sCa) in thyroparathyroidectomized (TPTX) rats. TPTX rats were treated for 11 days with daily s.c. injection of either vehicle or M‐PTH/PTHrP, or with daily oral alfacalcidol at the indicated doses, and sham‐surgery control rats were s.c. injected daily with vehicle. The levels of Ca in serum and urine were assessed. Blood samples were collected from the jugular vein at 8 hours (A) and at 24 hours (B) after the last treatment administration, and assessed for total sCa. Total urine was collected in metabolic cages over the time intervals of 0 to 8 hours (C), and 8 to 24 hours (D) and assessed for total urinary Ca. Data are means ± SEM; n = 6 or 5 (2.0 and 4.0 nmol/kg of M‐PTH/PTHrP); *p < 0.05 M‐PTH/PTHrP versus TPTX‐vehicle; #p < 0.05 TPTX vehicle versus sham.
Supplementary file JBM4-4-e10367-s001.pdf: Figure S1 PTH ligand‐induced cAMP‐signaling responses in GP‐2.3 cells Time course of the cAMP‐dependent luminescence response measured at 2‐minute intervals in the presence of each ligand at 10 nM (Ligand on‐phase) and B) Time course of the cAMP‐dependent luminescence response measured at 2‐minute intervals after washout of unbound ligand (Ligand wash‐out phase). GP‐2.3 cells preloaded with luciferin were treated with a concentration of PTH ligand at a concentration of 10 nM for 30 min, and cAMP‐dependent luminescence was measured at two‐minute intervals (ligand‐on phase). The cells were then removed from the plate reader, rinsed twice with media to remove unbound ligand, and then fresh media containing luciferin but lacking ligand was added and luminescence was assessed for additional 90 min (Ligand wash‐out phase). Data are means (± SEM) of four experiments, each performed in triplicate. Figure S2. In vivo calcemic actions of M‐PTH/PTHrP hybrid analogs in normal rats. The indicated M‐PTH/PTHrP hybrid analogs (sequences are shown in Figure 1) along with PTH(1–34) and PTHrP(1–36) controls, were administered at the indicated doses by i.v. injection, and at the indicated time points blood was collected from the tail vein and measured for ionized calcium (Ca^2+). Panels A‐C represent three separate experiments. Data are means ± SEM; n = 6 or 4 (80 nmol/kg of M‐PTH(1‐11)/PTHrP(12–36), M‐PTH(1‐14)/PTHrP(12–36), M‐PTH(1‐17)/PTHrP(18–36) and 1.25 nmol/kg of M‐PTH(1–30)/PTHrP(31–36)). *p < 0.05 versus Vehicle. Figure S3. Effects of 11 days treatment (12 days study) of M‐PTH/PTHrP on serum 1,25(OH) 2 Vitamin‐D3, urinary deoxypyridinoline (Dpd) and serum FGF23 in TPTX rats. Serum and urine samples obtained from the TPTX and sham control rats of the two‐week daily‐administration experiment shown in Figure 4 were analyzed by ELISA for the indicated markers. A) serum 1,25(OH)2Vitamin‐D3. B) urinary deoxypyridinoline (DpD)/Cre. C) serum FGF23. […]

[3] = target: T2, human PTHR1 (R^0 conformation) (Homo sapiens, UniProt Q03431); assay: Competition binding to the R^0 conformation of PTHR1
T2 construct: expressed in transfected cells; host or cells: COS-7 cells (transient transfection; membranes)
T2 sequence (Q03431 27-593): T1 sequence (Q03431 27-593)

[4] = Peptide solubility in aqueous buffers of neutral pH; format: physicochemical; settings: aqueous buffers at neutral pH; approximate

AVAEIQLMHQRAKWIQDLRRRFFLHHLIAEIHTAEI [M‐PTH(1‐14)/PTHrP(15‐36), [Ala^1,3,12,Gln^10,Arg^11,Trp^14]‐PTH(1‐14)/PTHrP(15–36)]
IC50 [1]: 0.67 ± 0.05 nM
sCa levels ([2]; 8 hours after administration): frank hypercalcemia
uCa at 0 to 8 hours and uDpD at 0 to 24 hours ([2]; after the last administration): increased significantly
IC50 [3]: 2.69 ± 0.99 nM
Concentration at which the peptide is poorly soluble [4]: > 300 µg/mL
